Laboratory results as given in article PMC6970549, “Orai1 Channel Inhibition Preserves Left Ventricular Systolic Function and Normal Ca^2+ Handling After Pressure Overload” (Circulation, 2020).

Target: Orai1 (Homo sapiens, UniProt Q96D31)
Experiment: patch-clamp electrophysiology in Orai1-transfected HEK293 cells
Assay type: cell-based
Description: patch-clamp electrophysiology in Orai1-transfected HEK293 cells on Orai1 | Electrophysiological recordings in Orai1-transfected HEK293 cells also confirmed that JPIII is a potent Orai1 inhibitor with an IC50 of […]

Sequence of Orai1 (Q96D31 whole entry): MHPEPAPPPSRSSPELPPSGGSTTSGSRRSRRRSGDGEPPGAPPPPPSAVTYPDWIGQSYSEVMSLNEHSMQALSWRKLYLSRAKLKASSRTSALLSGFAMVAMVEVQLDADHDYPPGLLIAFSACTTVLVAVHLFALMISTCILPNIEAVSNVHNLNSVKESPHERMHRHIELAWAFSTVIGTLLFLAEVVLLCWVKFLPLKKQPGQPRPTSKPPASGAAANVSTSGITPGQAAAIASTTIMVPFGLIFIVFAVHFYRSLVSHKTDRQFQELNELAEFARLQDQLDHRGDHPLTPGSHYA

Molecule `COc1ccc(OC)c(-c2ccc(NCc3ccncc3)cc2)c1` [JPIII, 4-(2,5-dimethoxyphenyl)-N-[(pyridin-4-yl)methyl]aniline] has an IC50 of 244 ± 39 nM.
